Data taken from patent US20090016989A1, “ANTIBODIES TO HUMAN SOMATOSTATIN RECEPTOR AND METHODS OF USE” (priority 2007, published 2009).

Tests used:
[1] = test system: BON cells; assay: Guava Nexin apoptosis assay (Annexin V / 7-AAD); type: cell-based, human; settings: 6 hours after treatment with staurosporin, % of Total
[2] = test system: BON cells; assay: Guava Nexin apoptosis assay (Annexin V / 7-AAD); type: cell-based, human; settings: 6 hours after treatment with staurosporin, % of Total; remark: listed apart in the source
Protocol: Cells were then switched to growth media without FBS and allowed to grow for another 24 hours before applying treatments. Samples were collected and counted in accordance with Guava Technologies' Viacount Flex (Cat#4500-0110) instructions. At the end of each antibody treatment, cells were dissociated from the plate using 1× trypsin-EDTA (Invitrogen Cat#2520). […] Next, phosphate buffer solution (D-PBS) (Invitrogen Cat#14190-144) (Invitrogen) was used as the exchange buffer to resuspend the cell pellet. […] Detection was achieved by using Guava PCA96 instrument and data was analysed by using Guava Nexin software module as (Cat#0500-0250). […] Following the protocol for the Guava Nexin™ assay (Guava Technologies), two different dyes were used to stain for cells undergoing apoptosis: 7-AAD stains for dead and late apoptosis cells (upper right quadrant of each graph in FIG. 10), and Annexin V stains for cells undergoing apoptosis from the early stage (lower right quadrant of each graph in FIG. 10). […] Once every 24 hours for 72 hours (FIGS. 10B, 10C and 10D), cells were collected and tested for apoptosis status using the Guava Nexin™ assay (Guava Technologies).

## CN[C@@H]1C[C@H]2O[C@@](C)([C@@H]1OC)n1c3ccccc3c3c4c(c5c6ccccc6n2c5c31)C(=O)NC4 [Staurosporine]
[1]
  Annexin V+: 52.3%
  Nuclear Debris (Upper Left Quadrant): 1.0%
[2]
  Early apoptotic cells (Lower Right Quadrant): 28.7%
  Late apoptotic cells (Upper Right Quadrant): 23.7%
  Live, healthy cells (Lower Left Quadrant): 46.7%
